Reference: PubChem BioAssay (NCI)
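Following 48 hours of exposure in 96-well plates, responses at five concentrations were used to interpolate endpoints linearly. Definition used: TGI = concentration required for complete inhibition of growth.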

Tests used:
Test in all cases: growth of human tumour cells (NCI), 48 h
[1] = system: 786-0 renal
[2] = system: A498 renal
[3] = system: A549 NSCLC
[4] = system: ACHN renal
[5] = system: BT-549 breast
[6] = system: CAKI-1 renal
[7] = system: CCRF-CEM leukemia
[8] = system: COLO 205 colon
[9] = system: DU-145 prostate
[10] = system: EKVX NSCLC
[11] = system: HCC-2998 colon
[12] = system: HCT-116 colon
[13] = system: HCT-15 colon
[14] = system: HL-60(TB) leukemia
[15] = system: HOP-62 NSCLC
[16] = system: HOP-92 NSCLC
[17] = system: HS 578T breast
[18] = system: HT29 colon
[19] = system: IGROV1 ovarian
[20] = system: K-562 leukemia
[21] = system: KM12 colon
[22] = system: LOX IMVI melanoma
[23] = system: M14 melanoma
[24] = system: MALME-3M melanoma
[25] = system: MCF7 breast
[26] = system: MDA-MB-231 breast
[27] = system: MDA-MB-435
[28] = system: MDA-N
[29] = system: MOLT-4 leukemia
[30] = system: NCI-H226 lung
[31] = system: NCI-H23 lung
[32] = system: NCI-H460 lung
[33] = system: NCI-H522 lung
[34] = system: NCI/ADR-RES ovarian
[35] = system: OVCAR-4 ovarian
[36] = system: OVCAR-5 ovarian
[37] = system: OVCAR-8 ovarian
[38] = system: PC-3 prostate
[39] = system: RPMI-8226 leukemia
[40] = system: RXF 393 renal
[41] = system: SF-268 CNS
[42] = system: SF-295 CNS
[43] = system: SK-MEL-2 melanoma
[44] = system: SK-MEL-28 melanoma
[45] = system: SK-MEL-5 melanoma
[46] = system: SK-OV-3 ovarian
[47] = system: SN12C renal
[48] = system: SNB-19 CNS
[49] = system: SNB-75 CNS
[50] = system: SR leukemia
[51] = system: SW-620 colon
[52] = system: T-47D breast
[53] = system: TK-10 renal
[54] = system: U251 CNS
[55] = system: UACC-257 melanoma
[56] = system: UACC-62 melanoma
[57] = system: UO-31 renal
[58] = system: OVCAR-3 ovarian
[59] = system: SF-539 CNS

With `O=C(/N=C1/OC(CN2CCOCC2)CN1C(=O)Nc1ccccc1)Nc1ccccc1` (centres undefined) the TGI [1] was > 100 µM, the TGI [2] was > 100 µM and the TGI [3] was > 100 µM. The TGI [4] was > 100 µM, the TGI [5] was > 100 µM and the TGI [6] was > 100 µM. For the same molecule, the TGI [7] was > 100 µM, the TGI [8] was > 100 µM and the TGI [9] was > 100 µM. The TGI [10] was > 100 µM, the TGI [11] was > 100 µM and the TGI [12] was > 100 µM. The TGI [13] was > 100 µM, the TGI [14] was > 100 µM and the TGI [15] was > 100 µM. The TGI [16] was > 100 µM, the TGI [17] was > 100 µM and the TGI [18] was > 100 µM. For the same molecule, the TGI [19] was > 100 µM, the TGI [20] was > 100 µM and the TGI [21] was > 100 µM. For the same molecule, the TGI [22] was > 100 µM, the TGI [23] was > 100 µM and the TGI [24] was > 100 µM. The TGI [25] was > 100 µM, the TGI [26] was > 100 µM and the TGI [27] was > 100 µM. The TGI [28] was > 100 µM, the TGI [29] was > 100 µM and the TGI [30] was > 100 µM. The TGI [31] was > 100 µM, the TGI [32] was > 100 µM and the TGI [33] was > 100 µM. For the same molecule, the TGI [34] was > 100 µM, the TGI [35] was > 100 µM and the TGI [36] was > 100 µM. For the same molecule, the TGI [37] was > 100 µM, the TGI [38] was > 100 µM and the TGI [39] was > 100 µM. For the same molecule, the TGI [40] was > 100 µM, the TGI [41] was > 100 µM and the TGI [42] was > 100 µM. The TGI [43] was > 100 µM, the TGI [44] was > 100 µM and the TGI [45] was > 100 µM. For the same molecule, the TGI [46] was > 100 µM, the TGI [47] was > 100 µM and the TGI [48] was > 100 µM. The TGI [49] was > 100 µM, the TGI [50] was > 100 µM and the TGI [51] was > 100 µM. The TGI [52] was > 100 µM, the TGI [53] was > 100 µM and the TGI [54] was > 100 µM. For the same molecule, the TGI [55] was > 100 µM, the TGI [56] was > 100 µM and the TGI [57] was > 100 µM.

In the case of `C=C(C[C@@H](O)[C@H](C)NC(=O)OCc1ccccc1)C(=O)OC(C)(C)C`, the TGI [2] is reported as > 100 µM, the TGI [3] is reported as > 100 µM and the TGI [4] is reported as > 100 µM. The TGI [5] was > 100 µM, the TGI [6] was > 100 µM and the TGI [7] was 61.7 µM. The TGI [8] was > 100 µM, the TGI [9] was > 100 µM and the TGI [10] was > 100 µM. The TGI [11] was > 100 µM, the TGI [12] was > 100 µM and the TGI [13] was > 100 µM. For the same molecule, the TGI [14] was > 100 µM, the TGI [15] was > 100 µM and the TGI [16] was > 100 µM. The TGI [17] was > 100 µM, the TGI [18] was > 100 µM and the TGI [19] was > 100 µM. The TGI [20] was > 100 µM, the TGI [21] was > 100 µM and the TGI [22] was > 100 µM. For the same molecule, the TGI [23] was > 100 µM, the TGI [24] was > 100 µM and the TGI [25] was > 100 µM. The TGI [26] was > 100 µM, the TGI [27] was > 100 µM and the TGI [28] was > 100 µM. For the same molecule, the TGI [29] was > 100 µM, the TGI [30] was > 100 µM and the TGI [31] was > 100 µM. For the same molecule, the TGI [32] was > 100 µM, the TGI [33] was > 100 µM and the TGI [34] was > 100 µM. For the same molecule, the TGI [58] was > 100 µM, the TGI [35] was > 100 µM and the TGI [36] was > 100 µM. The TGI [37] was > 100 µM, the TGI [38] was > 100 µM and the TGI [39] was > 100 µM. For the same molecule, the TGI [41] was > 100 µM, the TGI [42] was > 100 µM and the TGI [59] was > 100 µM. For the same molecule, the TGI [43] was > 100 µM, the TGI [44] was > 100 µM and the TGI [45] was > 100 µM. For the same molecule, the TGI [46] was > 100 µM, the TGI [47] was > 100 µM and the TGI [48] was > 100 µM. The TGI [49] was > 100 µM, the TGI [50] was > 100 µM and the TGI [51] was > 100 µM. The TGI [52] was 67.3 µM, the TGI [53] was > 100 µM and the TGI [54] was > 100 µM. For the same molecule, the TGI [55] was > 100 µM, the TGI [56] was > 100 µM and the TGI [57] was > 100 µM.
